Experimental data published in patent US20230381185A1, “NOVEL FORMULATIONS FOR ORAL ADMINISTRATION OF THERAPEUTIC AGENTS TO THE GASTROINTESTINAL TRACT” (3-D Matrix, Ltd., priority 2022, published 2023).
Entries after “also recorded” stand apart in the source; their conditions may differ. Read-outs that look alike come from different tables or passages of the source.

Tests used:
DSS-induced colitis mice = experiment: Efficacy in DSS-induced colitis (DAI, colon weight/length, MPO, histology, immune cells); type: in vivo
Text: An additional benefit of this nanocomposite system is that it can be dried and then reconstituted in vivo or under in vivo-like conditions without substantial alteration of its properties. The dried nanocomposite offers the advantage of a long-duration storage, but, perhaps more importantly, the dried nanocomposite powder can be encapsulated in various types of capsules known in the art for a controlled and localized delivery in precise part of the GIT with systems differentiated in the basis of GIT transit times, pH changes, bacterial enzymes, mucoadhesion, nanotechnologies and disease-associated triggers. One such capsule, designed for release of hydrated RADA16 hydrogel doped with a macromolecular dye, fluorescein isothiocyanate—dextran 4 kDa (FD4), mostly in the large intestine, has been described by Eleftheriadis et al. (Pharm. Development Tech. 25(4): 1-23 (2020)). That reference discloses a pH sensitive hydroxypropyl methylcellulose-phthalate (HPMCP)-based 3D-printed capsule. Other encapsulation materials suited to the present invention include poly(meth) acrylate polymers and members of the Eudragit family (Chu, J. N. and Traverso, G., Foundations of gastrointestinal-based drug delivery and future developments, Nature Reviews: Gastroenterology & Hepatology (2021) doi: 10.1038/s41575-021-00539-w). The present invention is based, at least, on the following findings/parameters: • 1. A nanocomposite based on the physical mixture of a preformed nanosystem (namely nanoemulsion, NE) loaded with a drug intended for the treatment of IBD, and a preformed self-assembling-peptide ([…])-based hydrogel (PURASTAT) was created at different concentrations of SAP. • 2. The creation of nanocomposites characterized by two different concentrations, led to the development of systems with different structural properties, leading to differences in the drug-release behaviours. • 3. […] The use of nanocomposite to test the therapeutic efficacy of the drug on an IBD-mouse model brought results based on different technique, detailed herein. • 5. Certain disease factors were improved by administration of PS hydrogel/NE mixture alone, even in the absence of any active ingredients. Disease activity index (DAI) score, used to evaluate the DSS-induced colitis. […] For each parameter a score from 0 to 4 was attributed and afterwards divided by three, resulting in the total DAI score ranging from 0 (unaffected) to 4 (severe colitis) (Gonçalves, F. da C., Schneider, N., H. M.-A. S. & 2013, U. Characterization of Acute Murine Dextran Sodium Sulfate (DSS) Colitis: Severity of Inflammation is Dependent on the DSS Molecular Weight and Concentration. Acta Sci. Vet. 41, 1-9 (2013)). Colon length and weight, which is often reduced in cases of inflammation (Biton, I. E. et al. Assessing Mucosal Inflammation in a DSS-Induced Colitis Mouse Model by MR Colonography. Tomogr. (Ann Arbor, Mich.) 4, 4-13 (2018)). The activity of the enzyme myeloperoxidase (MPO), which is a direct indicator of neutrophils infiltration into the colonic mucosa, and thus an important marker of inflammation (Hansberry, D. R., Shah, K., Agarwal, P. & Agarwal, N. Fecal Myeloperoxidase as a Biomarker for Inflammatory Bowel Disease. Cureus 9, (2017)). Histomorphologic evaluation by HPS stain (hematoxylin phloxine saffron stain), similar to H&E. HPS can differentiate between the most common connective tissue (collagen) and muscle and cytoplasm by staining the former yellow and the latter two pink, unlike an H&E stain, which stains all three pink. Immunohistochemistry for the detection of CD45 positive cells.
Efficacy of drug-loaded nanocomposites compared to a variety of controls was tested using mice of the same strain used in Example 5. Based on the results from the Stage 1 in vivo studies already described, all mice (except for the G1 healthy control group) were given 3% v/v DSS in drinking water for 4 days. After 4 days all mice were given normal drinking water (i.e., no DSS). […]

[1] = tested on: liver punch hole injuries in pigs; settings: cited from earlier work; for inflammatory cell infiltration due to the SAP: short-term study
[2] = cited from earlier work
[3] = tested on: oozing wounds in the walls of the stomach and/or duodenum of pigs; settings: endoscopic administration, no control group; cited from earlier work

C[C@@H]1CCN(C(=O)CC#N)C[C@@H]1N(C)c1ncnc2[nH]ccc12 [TFC, Tofacitinib]
Myeloperoxidase (MPO) activity in colonic tissue (DSS-induced colitis mice; indicator of neutrophil infiltration): slight improvement
Th2 or Treg populations (DSS-induced colitis mice; mouse, in vivo): did not affect
infiltration of lymphocytes / CD45+ cells (DSS-induced colitis mice; mouse, in vivo): reduced infiltration of lymphocytes
proportion of Th1 and Th17 proinflammatory populations (DSS-induced colitis mice; mouse, in vivo): significantly reduced
total amount of T cells (CD3+) (DSS-induced colitis mice; mouse, in vivo): strongly reduced
colon weight/colon length ratio (g/cm) (DSS-induced colitis mice; sacrifice at day 10, relative to G2 untreated IBD mice): statistically significant improvement; also recorded: significantly prevented
epithelium and muscularis structure / architecture (histology) (DSS-induced colitis mice; with respect to G2): considerable amelioration

IEIKIEIKIEIKI [IEIK13]
hemostasis ([1]; compared to RADA16): statistically significant improvement
inflammatory cell infiltration due to the SAP [1]: absence
storage modulus G′ ([2]; 1% in water): ~700 Pa
hemostasis [3]: hemostasis was achieved in both heparinized and non-heparinized animals

KLDLKLDLKLDL [KLD12]
storage modulus G′ ([2]; 1.5% in water): about 350 Pa

Ac-RADARADARADARADA-CONH2 [RADA16]
inflammatory cell infiltration due to the SAP [1]: absence
storage modulus G′ ([2]; 2.5% in water): about 350 Pa
